Laboratory results taken from patent US5929236A, “2-substituted morpholine and thiomorpholine derivatives as GABA-B antagonists” (Schering Corporation, priority 1995, dated 1999).

What was measured:
GABAB receptors = biological target: T1, GABAB receptors (Rattus norvegicus, UniProt Q9Z0U4); assay: GABAB Receptor Binding Assay ([3H]GABA, rat brain synaptosomes)
T1 construct: Rat brain synaptosomes are used as a source of GABAB receptors; from tissue; host or cells: rat brain synaptosomes
Experimental: GABAB Receptor Binding Assay
The percentage inhibition of GABA binding to GABAB receptors is measured by tritiated GABA ([^3 H]GABA) determination of the degree of binding by scintillation counting. Rat brain synaptosomes are used as a source of GABAB receptors. An incubation medium is prepared from the following: 20 μg/mL of the compound to be tested as a solution in 1% DMSO/water; 5 nM [^3 H]GABA; 50 mM Tris buffer (pH 7.5); and 2.5 mM CaCl2. The medium also contains 40 μM isoguvacine to selectively block binding to GABAA receptors. The synaptosome (200 μg/mL) is added to the incubation medium and incubated for 30 minutes at 20° C. The incubation is terminated by filtration and counted to determine the percentage inhibition of [^3 H]-GABA binding. The results are reported as IC50 values for those compounds inhibiting [^3 H]-GABA binding by >50%.

[1] = biological target: prejunctional GABAB receptors (Cavia porcellus, UniProt A0A286X9P6); assay: In Vitro Assay (guinea pig trachea, reversal of baclofen inhibition of EFS-induced contractions); type: cell-based, guinea pig (male Hartley); details: 30 μmol/L baclofen; for IC30: guinea pig trachea
Sequence of prejunctional GABAB receptors (A0A286X9P6 30-844): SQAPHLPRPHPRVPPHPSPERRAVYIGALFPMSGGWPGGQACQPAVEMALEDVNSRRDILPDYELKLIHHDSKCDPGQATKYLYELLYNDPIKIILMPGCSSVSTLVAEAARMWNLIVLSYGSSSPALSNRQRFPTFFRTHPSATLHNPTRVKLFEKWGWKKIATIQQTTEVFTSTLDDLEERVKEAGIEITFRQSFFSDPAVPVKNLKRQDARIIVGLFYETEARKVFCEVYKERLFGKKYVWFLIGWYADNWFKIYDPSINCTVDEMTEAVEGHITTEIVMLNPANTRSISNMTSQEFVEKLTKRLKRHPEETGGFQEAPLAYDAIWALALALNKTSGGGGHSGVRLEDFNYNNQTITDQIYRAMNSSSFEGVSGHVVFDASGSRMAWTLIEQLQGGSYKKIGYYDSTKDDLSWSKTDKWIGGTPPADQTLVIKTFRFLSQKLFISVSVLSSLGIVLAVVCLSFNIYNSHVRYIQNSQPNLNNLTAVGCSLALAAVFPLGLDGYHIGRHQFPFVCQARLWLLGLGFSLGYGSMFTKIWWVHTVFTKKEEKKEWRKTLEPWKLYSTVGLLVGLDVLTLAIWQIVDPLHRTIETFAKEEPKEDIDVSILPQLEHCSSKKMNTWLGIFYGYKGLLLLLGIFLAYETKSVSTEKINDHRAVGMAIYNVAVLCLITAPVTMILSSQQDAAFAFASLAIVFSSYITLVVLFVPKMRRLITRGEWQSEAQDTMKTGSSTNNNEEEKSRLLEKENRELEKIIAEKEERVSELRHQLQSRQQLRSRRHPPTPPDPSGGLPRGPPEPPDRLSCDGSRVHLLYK
Sequence of prejunctional GABAB receptors (H0V741 1-820 partner): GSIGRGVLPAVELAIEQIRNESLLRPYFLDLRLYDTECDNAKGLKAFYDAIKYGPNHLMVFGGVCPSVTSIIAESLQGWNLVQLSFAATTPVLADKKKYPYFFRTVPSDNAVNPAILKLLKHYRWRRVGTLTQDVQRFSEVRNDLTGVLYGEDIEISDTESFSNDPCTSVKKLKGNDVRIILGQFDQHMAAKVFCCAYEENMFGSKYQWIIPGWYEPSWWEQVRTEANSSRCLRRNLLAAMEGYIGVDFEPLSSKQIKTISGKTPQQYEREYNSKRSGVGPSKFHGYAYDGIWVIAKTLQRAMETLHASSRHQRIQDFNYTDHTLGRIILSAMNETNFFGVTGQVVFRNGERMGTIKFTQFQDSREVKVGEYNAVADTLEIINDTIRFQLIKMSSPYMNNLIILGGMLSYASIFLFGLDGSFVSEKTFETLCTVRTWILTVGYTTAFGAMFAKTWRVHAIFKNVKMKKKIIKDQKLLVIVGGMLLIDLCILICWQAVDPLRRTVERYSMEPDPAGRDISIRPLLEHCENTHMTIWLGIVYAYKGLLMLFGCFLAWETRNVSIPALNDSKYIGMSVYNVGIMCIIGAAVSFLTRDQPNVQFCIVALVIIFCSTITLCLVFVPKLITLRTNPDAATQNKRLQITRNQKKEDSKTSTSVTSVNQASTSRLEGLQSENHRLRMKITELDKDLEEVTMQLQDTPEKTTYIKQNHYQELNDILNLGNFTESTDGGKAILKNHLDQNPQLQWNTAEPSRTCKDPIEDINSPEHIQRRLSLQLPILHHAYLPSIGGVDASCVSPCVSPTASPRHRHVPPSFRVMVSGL
Experimental: Male Hartley guinea pigs (450-650 g) are sacrificed by stunning and the trachea removed proximal to the carina and cut into 5 mm segments. The segments are attached to isometric force displacement transducers (Model FT03: Grass Instruments) and suspended in 15 mL organ baths filled with low Ca^2+ (0.6 mmol/L) Tyrode's buffer solution (pH 7.4) supplemented with 5.6 mmol/L glucose, 30 μmol/L choline and 2 μmol/L indomethacin. The solution is bubbled with a mixture of 95% O2 +5% CO2 and maintained at 37° C. The tracheal segments are allowed to equilibrate for 90 minutes under a resting tension of 0.5 g.
Platinum electrodes are placed on either side of the trachea and electrical field stimulation (EFS) (20 V, 8 Hz, 0.5 ms pulse for 5 s) was generated each minute from an electrical stimulator (Model S-88: Grass Instruments) and delivered to the electrodes through a stimulus distributor (Buxco Electronics). The stimulation parameters are chosen as appropriate for producing cholinergic contractions of the trachea that are sensitive to the inhibitory effects of compounds acting at prejunctional GABAB receptors. Contractile responses were recorded on a polygraph (Harvard Apparatus). The compound to be tested is added to the bath 10 min. before addition of 30 μmol/L baclofen. The effect of baclofen treatment in the absence or in the presence of the compound to be tested is expressed as a percent inhibition of EFS-induced contractions.

[2] = tested on: Respiratory Depressant Effect of Baclofen; assay: Reversal of the Respiratory Depressant Effect of Baclofen via icv Administration; type: in vivo, guinea pig; details: baclofen plus vehicle
Experimental: (§1) Animal Model for Respiratory Depression:
(§2) Place unanesthetized guinea pigs in a head-out plethysmograph and expose to a CO2 enriched gas mixture (10% CO2, 21% O2, 69% N2) for 10 min., (see Danko, et al., J. Pharm. Methods, 19, 165-173 (1988)). Plethysmograph pressure is detected with a transducer connected to a chart recorder. Minute ventilation is calculated as the product of tidal volume and respiratory frequency. The compound to be tested is administered orally, subcutaneously (sc), intraperitoneally (ip) or via an intracerebroventricular route (icv). Baclofen (3 mg/kg, sc) was given 30 min before exposure to the CO2 enriched gas. When given by the oral route, the compounds is administered 1, 3, 5 or 7 h before exposure to CO2 enriched gas. A 40 or 30 min. preteratment is used for the subcutaneous and intraperitoneal routes, respectively. The vehicle for oral, sc or ip administration is saline. For icv administration, single icv cannulae are placed in the lateral ventricle of anesthetized guinea pigs, (see McLeod, et al., Eur. J. Pharmacol., 209, 141-142 (1988)). The animals are allowed to recover approximately one week prior to use for ventilation experiments. The vehicle for icv administration is artificial cerebrospinal fluid (CSF).

[3] = tested on: Respiratory Depressant Effect of Baclofen; assay: Inhibition of Respiratory Depressant Effect of Baclofen; type: in vivo, guinea pig; details: baclofen alone (3 mg/kg, sc)
Experimental: as §1
as §2, with “When given by the oral route, the compounds is administered 1, 3, 5 or 7 h before exposure to CO2 enriched gas.” left out

[4] = literature (Olpe, et al), in words; cited from earlier work
GABAB = details: literature, in words; cited from earlier work
[5] = 5 nM [3H]GABA, rat brain synaptosomes, 20° C., 30 min

T1 sequence (Q9Z0U4 17-960 limits assumed): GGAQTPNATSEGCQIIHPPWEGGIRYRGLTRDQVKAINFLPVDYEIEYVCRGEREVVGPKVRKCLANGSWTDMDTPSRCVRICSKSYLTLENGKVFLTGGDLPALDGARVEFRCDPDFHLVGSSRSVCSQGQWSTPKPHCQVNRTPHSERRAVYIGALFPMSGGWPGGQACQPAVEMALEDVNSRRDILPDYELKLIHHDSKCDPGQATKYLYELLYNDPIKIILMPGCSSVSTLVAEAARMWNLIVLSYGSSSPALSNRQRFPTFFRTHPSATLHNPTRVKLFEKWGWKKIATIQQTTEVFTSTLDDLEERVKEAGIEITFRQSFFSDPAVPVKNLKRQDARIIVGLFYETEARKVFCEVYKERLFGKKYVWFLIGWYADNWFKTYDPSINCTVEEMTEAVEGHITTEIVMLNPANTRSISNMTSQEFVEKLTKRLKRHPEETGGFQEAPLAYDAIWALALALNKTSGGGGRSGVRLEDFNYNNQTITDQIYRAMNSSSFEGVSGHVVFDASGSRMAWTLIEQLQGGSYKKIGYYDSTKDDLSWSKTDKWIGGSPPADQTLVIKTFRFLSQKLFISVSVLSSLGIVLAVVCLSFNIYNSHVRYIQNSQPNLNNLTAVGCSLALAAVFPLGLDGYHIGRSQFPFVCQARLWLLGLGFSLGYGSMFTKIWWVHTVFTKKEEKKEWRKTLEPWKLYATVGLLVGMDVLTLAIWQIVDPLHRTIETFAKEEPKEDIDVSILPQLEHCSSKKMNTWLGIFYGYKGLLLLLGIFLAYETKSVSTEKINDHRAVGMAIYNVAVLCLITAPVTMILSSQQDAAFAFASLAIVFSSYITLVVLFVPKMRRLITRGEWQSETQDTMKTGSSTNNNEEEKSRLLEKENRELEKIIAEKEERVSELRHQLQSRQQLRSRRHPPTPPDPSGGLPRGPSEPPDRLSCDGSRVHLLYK
T1 sequence (O88871 41-940 partner): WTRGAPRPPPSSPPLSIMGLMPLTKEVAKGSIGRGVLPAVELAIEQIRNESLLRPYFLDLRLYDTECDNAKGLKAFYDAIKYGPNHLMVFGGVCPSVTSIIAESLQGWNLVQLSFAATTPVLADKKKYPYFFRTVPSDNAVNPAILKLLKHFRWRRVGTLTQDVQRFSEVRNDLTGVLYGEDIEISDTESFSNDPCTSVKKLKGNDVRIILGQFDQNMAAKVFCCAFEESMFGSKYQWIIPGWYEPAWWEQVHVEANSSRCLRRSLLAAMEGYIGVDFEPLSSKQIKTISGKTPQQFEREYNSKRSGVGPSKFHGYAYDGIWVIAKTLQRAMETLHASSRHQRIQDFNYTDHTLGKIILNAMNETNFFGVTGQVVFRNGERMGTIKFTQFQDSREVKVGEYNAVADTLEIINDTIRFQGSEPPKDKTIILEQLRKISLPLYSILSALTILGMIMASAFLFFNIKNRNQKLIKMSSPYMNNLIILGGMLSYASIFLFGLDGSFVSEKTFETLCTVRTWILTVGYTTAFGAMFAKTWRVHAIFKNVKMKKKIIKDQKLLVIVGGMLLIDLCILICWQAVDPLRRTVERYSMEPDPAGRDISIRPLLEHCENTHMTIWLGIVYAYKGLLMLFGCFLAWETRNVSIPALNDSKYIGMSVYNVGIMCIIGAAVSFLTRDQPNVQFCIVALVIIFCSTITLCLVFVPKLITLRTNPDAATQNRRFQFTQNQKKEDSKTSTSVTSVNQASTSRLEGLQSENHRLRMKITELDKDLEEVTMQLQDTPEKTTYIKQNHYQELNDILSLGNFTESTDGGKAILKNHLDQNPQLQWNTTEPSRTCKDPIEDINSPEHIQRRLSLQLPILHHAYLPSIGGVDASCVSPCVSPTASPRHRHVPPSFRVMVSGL

Row | SMILES | IC50 (GABAB receptors; [5]) [µM] | inhibition at 100 µM ([1]; 100 μM) [%] | inhibition at 300 µM [1] [%] | also measured
1 | CP(=O)(O)CC1CNCCO1 (stereo not drawn) [Example 24] | 6 | 100 | 98 | –
2 | CC1(C)COC(CC(=O)O)CN1 (single isomer, unassigned) [Example 6B] | > 100 | – | 42 | In Vitro % inhibition ([1]; 100 μM): 8%
3 | CC[C@@H]1CO[C@H](CC(=O)O)CN1 | 100 | 50 | – | –
4 | CC[C@H]1CO[C@H](CC(=O)O)CN1 | > 100 | 17 | – | –
5 | O=C(O)CC1CNCCS1 (stereo not drawn) [Example 16] | – | 44 | – | IC50 (GABAB receptors; unit inferred): > 100 µM
6 | CC1(C)COC(CP(C)(=O)O)CN1 (stereo not drawn) | 2 | 100 | – | IC30 [1]: 1.9 µM
7 | NCC(CC(=O)O)c1ccc(Cl)cc1 (stereo not drawn) [Baclofen, reference compound] | – | – | – | Inhibition of ventilation [2]: 82 ± 5%; Inhibition of ventilation [3]: 44-60%
8 | CCOC(OCC)P(=O)(O)CCCN [CGP 35348, 3-aminopropyl(diethoxymethyl)phosphinic acid] | – | – | – | Penetration of the blood/brain barrier [4]: can penetrate the blood/brain barrier; GABAB receptor affinity (GABAB): low receptor affinity (comparable to 2-hydroxy saclofen)
9 | NCC(O)(CS(=O)(=O)O)c1ccc(Cl)cc1 (stereo not drawn) [2-hydroxy saclofen] | – | – | – | GABAB receptor affinity (GABAB): low affinity
10 | CC1CNCC(CC(=O)O)S1 (stereo not drawn) | > 100 | 21 | – | –
11 | CC[C@]1(CO)CO[C@@H](CC(=O)O)CN1 (relative stereo) [Example 18] | 100 ± 40 | 50 | – | –
12 | CP(=O)(O)CC1CN(Cc2ccccc2)CCO1 (stereo not drawn) [Example 23] | > 100 | 31 | – | –
13 | C[C@@]1(CO)CO[C@@H](CC(=O)O)CN1 (relative stereo) [Example 21] | – | – | – | IC30 [1]: 0.85 µM

Further lines, with some results ahead:

Row | IC50 (GABAB receptors; [5]) [µM] | inhibition at 100 µM ([1]; 100 μM) [%] | inhibition at 300 µM [1] [%] | SMILES | also measured
14 | 37 ± 12 | 76 | – | O=C(O)CC1CNC2(CC2)CO1 (stereo not drawn) [Example 9A] | –
15 | 30 | 63 | 75 | C[C@@H]1CO[C@@H](CC(=O)O)CN1 (relative stereo) [Example 14A] | –
16 | 20 | 81 | 88 | C[C@@H]1CS[C@@H](CC(=O)O)CN1 (relative stereo) [Example 13C] | –
17 | 50 | 59 | 46 | O=C(O)CC1CNCCO1 (stereo not drawn) | –
18 | 20 | 74 | 95 | C[C@H]1CO[C@@H](CC(=O)O)CN1 (relative stereo) [Example 14] | –
19 | 3 | – | – | CP(=O)(O)CC1CNC2(CCCC2)CO1 (stereo not drawn) | IC30 [1]: 3.3 µM
20 | 14 | 82 | 95 | CC[C@@H]1CO[C@@H](CC(=O)O)CN1 [Example 11] | –
21 | 6 | 96 | 100 | CC1(C)COC(CC(=O)O)CN1 (stereo not drawn) [Example 2] | IC30 [1]: 1.5 µM
22 | 19 ± 10 | 90 | 99 | CC[C@@]1(CO)CO[C@@H](CC(=O)O)CN1 (relative stereo) [Example 19] | –
23 | 10 | 95 | 97 | O=C(O)CC1CNC2(CCCC2)CO1 (stereo not drawn) [Example 9] | –
24 | 60 | 55 | – | C[C@H]1CS[C@@H](CC(=O)O)CN1 (relative stereo) [Example 13B] | –
25 | 3.8 | – | – | C[C@]1(CO)CO[C@@H](CC(=O)O)CN1 (relative stereo) [Example 20] | inhibition at 30 µM ([1]; 30 μM): 24%
